Laboratory results as given in patent US20190169620A1, “Treatment of HER2-Dependent Cancers by SORL1 Inhibition” (TURUN YLIOPISTO, priority 2017, published 2019).
Entries after “also recorded” stand apart in the source; their conditions may differ.

How the values were obtained:
[1] = test system: 5637 bladder cancer cells; experiment: Colony formation assay of SORLA silenced 5637 treated with CADs; type: cell-based; conditions: drug for 7 days combined with SORLA silencing
Experimental: Transient SORLA (with two individual siRNAs) or scramble silencing was performed for 5637 bladder cancer cells. After 48 hours of silencing, 20 000 cells per well were plated on colony formation assay on 12-well plate. […] DMSO was used as control. Cells were treated for 7 days and drugs including media was replenished between 3-4 days of culture. After 7 days, cells were stained with 0.2% Crystal Violet in 10% EtOH for 10 min RT. Cells were washed extensively with PBS and dried. Wells were scanned and confluency was measured by using Image J colony area plug-in.

[2] = test system: HER2-amplified breast cancer cells
Experimental: Transient SORLA (with two individual siRNAs) or scramble silencing was performed for 5637 bladder cancer cells. After 48 hours of silencing, 3000 cells per well were plated on 96-well plate. Cells were treated with increasing concentration of Ebastine and Loratadine for 48 hours. After 48 hours of treatment, WST-8 reagent (Sigma, 96992) was added 10 μl/well and absorbance 450 nm was measured by plate reader after 1-2 h of incubation at 37° C. with 5% CO2. Medium without cells was used as background and the A450 of background was subtracted from the samples. Relative viability was calculated by normalizing the A450 values of drug treated to DMSO treated cells. IC50 values were calculated by GraphPad using nonlinear regression to fit the data to the log(inhibitor) vs. response (variable slope) curve.

HER2 = experiment: Immunofluorescent imaging of HER2 localization; type: cell-based; conditions: BT474, primaquine 24 h, 0.3 and 0.6 mM
Experimental: (§1) Cells were plated on ibidi 8-well dishes or in some cases in […] ibidi dishes. Cells were fixed with 4% paraformaldehyde (PFA) in phosphate buffer saline (PBS) for 10 min at room temperature. PFA was quenched by incubating with 50 mM NH4Cl for 15 min at room temperature. Cells were blocked and permeabilized with 30% horse serum in PBS +0.3% Triton X-100 15 min at room temperature. Primary antibodies were diluted in 30% horse serum and incubated over night at +4° C. HER2 staining was performed with Herceptin (Roche) or with mouse monoclonal antibody (ThermoScientific; MA5-14057) in dilution of 1:300, LAMP1 antibody (Santa Cruz; SC-20011 (H4A3)) was diluted 1:50, rabbit monoclonal SORLA antibody (CM Petersen Lab, Arhus University) in dilution of 1:300, goat anti-EEA-1 (Santa Cruz; sc-6415) 1:50, goat anti-VPS35 (Abcam; ab10099) 1:300, mouse anti-CD63 (Hybridoma Bank; H5C6) 1:300 and rabbit anti-TGN46 (Abcam; ab50595) 1:300. After primary antibody incubation, cells were washed three times with PBS for 5 min at room temperature and then secondary antibodies were diluted 1:300 in 30% horse serum. […]

MDA-MB-361 cells = experiment: Proliferation assay (WST-8), MDA-MB-361; type: cell-based; conditions: MDA-MB-361, lapatinib treated
Experimental: Cells were plated on 96-well plate (3000 cells/well, 4 replicates per sample) in volume of 100 μl.
Transfection of siRNAs to silence SORLA or HER2 protein expression: Cells were seeded on 6-well plate day before the transfection (300 000-500 000 cells/well). On next day, transfection mix containing siRNA (20-40 nM of targeting SORLA, 40 nM of HER2 targeting siRNA and 20-40 nM scramble siRNA) and RNAiMAX transfection reagent (Manufacturer) in OptiMEM medium was prepared. The mix was allowed to stand for 15 min at room temperature before adding to the cells on 6 well plate. After 48 hours of transfection cells were used for experiments.

BT474 cells = experiment: Cell cycle analysis (propidium iodide, flow cytometry); type: cell-based; conditions: BT474, 0.5 μM lapatinib for 24 hours; stated as the effect SORLA silencing mimics
Experimental: BT474 transfected with control siRNA and with two individual siRNA against SORLA (#3 and #4) and BT474 treated with DMSO or with 0.5 μM Lapatinib for 24 hours were trypsinized, spun down and suspended in ice cold PBS (1 ml). Cells were fixed with 70% EtOH (ice cold) by adding 3 ml of 70% EtOH in dropwise manner while gently vortexin the cells. Cells were then stored at +4° C. until propidium iodide (PI) staining was performed. PI (Sigma) staining was performed by preparing 25 μg/ml PI solution in PBS with RNAase A (Qiagen). Cells were washed twice with PBS. After that cells were suspended in PI solution and incubated 10 minutes on ice. Samples were protected from light and kept on ice until flow cytometry analysis. Samples were run with LSR II and cell cycle analysis was performed with FlowJo.

[3] = test system: LAMP1- and CD63 (LAMP3)-positive lysosomes; experiment: Immunofluorescent imaging of lysosome aggregation (LAMP1, CD63); type: cell-based; conditions: Lapatinib 24 h, 0.5 mM
Experimental: as §1

TFEB and LAMP1 = experiment: Western blot analysis of TFEB and LAMP1 protein levels; type: cell-based; conditions: SKBR3, lapatinib treatment (24 h)
Experimental: Protein extracts were sonicated (0.5 min ON/0.5 min OFF totally 5 min with full power) and protein levels were measured by Bio-Rad protein quantification kit. Sample buffer was added and samples were boiled for 5 min at 95° C. heat block. Proteins were separated on 4-20% gradient gel (Bio-Rad) and transferred into nitrocellulose membranes (Bio-Rad) by semi-dry turbo blot (Bio-Rad). Membranes were blocked with 5% milk powder in TBST for 1 hour at room temperature. Primary antibodies were diluted in blocking buffer (ThermoScientific) and PBS (1:1 ratio) mix and incubated over night at +4° C. Following primary antibodies were used: HER2 (Thermo Scientific, MA5-14057), SORLA (BD Transduction Lab, 612633), α-tubulin (Hybridoma Bank).

## CC(C)(C)c1ccc(C(=O)CCCN2CCC(OC(c3ccccc3)c3ccccc3)CC2)cc1 [Ebastine]
[1]
  5637 bladder cancer colony growth: significant synergistic effects
[2]; Ebastine 48 hours in combination with SORLA silencing, irrespective of anti-HER2 therapy sensitivity
  cell viability: synergistic effect on cell viability; also recorded: significantly decreased cell viability
[2]; Ebastine combined with SORLA silencing
  cell death in vitro: significantly increased cell death

## CCOC(=O)N1CCC(=C2c3ccc(Cl)cc3CCc3cccnc32)CC1 [Loratadine]
[1]
  5637 bladder cancer colony growth: significant synergistic effects

## COc1cc(NC(C)CCCN)c2ncccc2c1 (stereo not shown) [primaquine]
HER2
  HER2 localization: accumulation of intracellular HER2

## CS(=O)(=O)CCNCc1ccc(-c2ccc3ncnc(Nc4ccc(OCc5cccc(F)c5)c(Cl)c4)c3c2)o1 [lapatinib]
MDA-MB-361 cells
  proliferation / drug sensitivity: resistant to Lapatinib
BT474 cells
  cell cycle distribution: increased accumulation of cells at G1/G0 and decreased number of cells in S phase
[3]; BT474 (sensitive)
  lysosome aggregation: induced lysosome aggregation
[3]; MDA-MB-361 (resistant)
  lysosome aggregation: not in the resistant MDA-MB-361 cells
TFEB and LAMP1
  LAMP1 protein levels: similarly increased
